Source: ChEMBL document CHEMBL1153825, “From a natural product lead to the identification of potent and selective benzofuran-3-yl-(indol-3-yl)maleimides as glycogen synthase kinase 3beta inhibitors that suppress proliferation and survival of pancreatic cancer cells” (J Med Chem, 2009)

Key:
[1] = molecular target: Glycogen synthase kinase-3 beta (Homo sapiens, UniProt P49841); experiment: Inhibition of human GSK3-beta by scintillation counting
[2] = test system: MIA PaCa-2; experiment: Growth inhibition of human MIAPaCa2 cells after 72 hrs by MTS assay; type: functional, cell-based; conditions: MIA PaCa-2, 72 h
[3] = test system: BXPC-3; experiment: Growth inhibition of human BxPC3 cells after 72 hrs by MTS assay; type: functional, cell-based; conditions: BXPC-3, 72 h
[4] = test system: HuP-T3; experiment: Growth inhibition of human HUPT3 cells after 72 hrs by MTS assay; type: functional, cell-based; conditions: HuP-T3, 72 h
[5] = molecular target: Cyclin-dependent kinase 1/cyclin B1 (Homo sapiens, UniProt P06493); experiment: Inhibition of CDK1/Cyclin B; type: protein-complex assay
Cyclin-dependent kinase 1/cyclin B1, sequence (P06493 whole entry): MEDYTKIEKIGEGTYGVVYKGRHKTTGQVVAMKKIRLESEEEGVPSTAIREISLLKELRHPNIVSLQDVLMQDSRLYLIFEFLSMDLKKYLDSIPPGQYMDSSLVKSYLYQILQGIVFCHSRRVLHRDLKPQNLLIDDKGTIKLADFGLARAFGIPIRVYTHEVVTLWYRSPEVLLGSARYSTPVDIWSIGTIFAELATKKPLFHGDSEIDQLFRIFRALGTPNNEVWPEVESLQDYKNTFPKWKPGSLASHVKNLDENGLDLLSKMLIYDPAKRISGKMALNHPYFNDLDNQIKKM
Cyclin-dependent kinase 1/cyclin B1, sequence (P14635 whole entry, further chain): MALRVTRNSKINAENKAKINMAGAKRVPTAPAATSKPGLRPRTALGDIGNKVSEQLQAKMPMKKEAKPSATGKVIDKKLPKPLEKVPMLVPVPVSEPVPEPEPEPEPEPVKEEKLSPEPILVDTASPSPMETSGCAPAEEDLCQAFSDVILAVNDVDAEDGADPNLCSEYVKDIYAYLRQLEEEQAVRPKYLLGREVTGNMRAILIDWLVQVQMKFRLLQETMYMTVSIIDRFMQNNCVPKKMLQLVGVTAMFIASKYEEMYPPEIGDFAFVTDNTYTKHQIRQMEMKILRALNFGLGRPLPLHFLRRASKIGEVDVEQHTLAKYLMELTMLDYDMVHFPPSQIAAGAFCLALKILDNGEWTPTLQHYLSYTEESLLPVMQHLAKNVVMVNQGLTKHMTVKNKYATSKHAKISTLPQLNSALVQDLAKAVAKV

[6] = molecular target: T1, Serine/threonine-protein kinase Chk1 (Homo sapiens, UniProt O14757); experiment: Inhibition of CHK1
T1 sequence (O14757 whole entry): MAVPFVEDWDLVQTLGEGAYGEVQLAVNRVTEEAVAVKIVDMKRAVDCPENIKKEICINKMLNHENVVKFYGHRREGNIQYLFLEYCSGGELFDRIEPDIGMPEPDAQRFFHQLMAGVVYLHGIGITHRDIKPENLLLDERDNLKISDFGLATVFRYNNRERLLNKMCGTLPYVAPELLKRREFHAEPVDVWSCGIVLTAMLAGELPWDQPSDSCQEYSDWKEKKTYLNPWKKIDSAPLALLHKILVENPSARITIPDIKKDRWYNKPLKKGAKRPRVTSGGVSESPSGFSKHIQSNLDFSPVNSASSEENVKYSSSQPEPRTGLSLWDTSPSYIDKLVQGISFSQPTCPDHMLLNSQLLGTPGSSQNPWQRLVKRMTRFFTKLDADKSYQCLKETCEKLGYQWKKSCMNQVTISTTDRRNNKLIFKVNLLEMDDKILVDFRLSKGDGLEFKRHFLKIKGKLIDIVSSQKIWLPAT

[7] = molecular target: RAC-gamma serine/threonine-protein kinase (Homo sapiens, UniProt Q9Y243); experiment: Inhibition of AKT3 up to 50 uM
RAC-gamma serine/threonine-protein kinase, sequence (Q9Y243 whole entry): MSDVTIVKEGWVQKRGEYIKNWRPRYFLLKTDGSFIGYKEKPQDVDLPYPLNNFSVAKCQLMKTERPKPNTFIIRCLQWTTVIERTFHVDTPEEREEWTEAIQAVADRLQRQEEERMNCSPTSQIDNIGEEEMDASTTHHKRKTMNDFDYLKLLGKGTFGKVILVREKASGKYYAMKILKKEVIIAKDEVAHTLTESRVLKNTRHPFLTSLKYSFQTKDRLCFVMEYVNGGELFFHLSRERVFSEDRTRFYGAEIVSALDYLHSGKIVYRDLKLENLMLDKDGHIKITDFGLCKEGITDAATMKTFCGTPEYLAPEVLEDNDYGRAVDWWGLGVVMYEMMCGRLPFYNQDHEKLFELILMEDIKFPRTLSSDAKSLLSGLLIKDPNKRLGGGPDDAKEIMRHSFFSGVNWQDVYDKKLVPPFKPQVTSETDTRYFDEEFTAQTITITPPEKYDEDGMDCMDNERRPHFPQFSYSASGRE

[8] = molecular target: RAF proto-oncogene serine/threonine-protein kinase (Homo sapiens, UniProt P04049); experiment: Inhibition of cRAF up to 50 uM
RAF proto-oncogene serine/threonine-protein kinase, sequence (P04049 whole entry): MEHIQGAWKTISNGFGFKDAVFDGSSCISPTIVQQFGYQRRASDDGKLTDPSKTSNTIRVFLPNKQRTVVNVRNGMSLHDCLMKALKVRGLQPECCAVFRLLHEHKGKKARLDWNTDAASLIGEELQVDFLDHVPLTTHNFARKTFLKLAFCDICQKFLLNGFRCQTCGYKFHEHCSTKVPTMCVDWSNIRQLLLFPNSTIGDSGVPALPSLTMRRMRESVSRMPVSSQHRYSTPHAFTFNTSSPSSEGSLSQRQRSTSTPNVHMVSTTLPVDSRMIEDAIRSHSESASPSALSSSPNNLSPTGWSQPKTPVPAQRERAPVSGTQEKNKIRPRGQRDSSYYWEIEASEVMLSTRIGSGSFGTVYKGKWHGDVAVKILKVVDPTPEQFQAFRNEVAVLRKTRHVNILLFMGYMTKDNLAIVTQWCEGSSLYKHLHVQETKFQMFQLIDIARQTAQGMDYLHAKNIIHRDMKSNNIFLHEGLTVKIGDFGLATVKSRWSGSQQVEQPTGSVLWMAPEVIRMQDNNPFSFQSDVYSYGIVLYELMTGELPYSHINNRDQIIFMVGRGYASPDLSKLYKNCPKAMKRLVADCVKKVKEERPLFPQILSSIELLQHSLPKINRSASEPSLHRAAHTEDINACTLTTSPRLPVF

[9] = molecular target: Mitogen-activated protein kinase 3 (Homo sapiens, UniProt P27361); experiment: Inhibition of ERK1 up to 50 uM
Mitogen-activated protein kinase 3, sequence (P27361 whole entry): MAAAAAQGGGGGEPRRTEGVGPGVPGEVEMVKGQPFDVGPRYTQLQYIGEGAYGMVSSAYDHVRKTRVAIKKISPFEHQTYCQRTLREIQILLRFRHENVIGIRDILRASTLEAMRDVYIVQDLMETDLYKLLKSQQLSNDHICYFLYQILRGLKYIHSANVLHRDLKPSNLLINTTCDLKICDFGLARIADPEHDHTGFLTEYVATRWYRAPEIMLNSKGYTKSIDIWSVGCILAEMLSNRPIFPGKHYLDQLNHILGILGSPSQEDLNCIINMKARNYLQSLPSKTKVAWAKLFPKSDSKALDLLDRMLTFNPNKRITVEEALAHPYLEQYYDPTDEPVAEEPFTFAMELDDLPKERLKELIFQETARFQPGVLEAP

[10] = molecular target: T2, Inhibitor of nuclear factor kappa-B kinase subunit beta (Homo sapiens, UniProt O14920); experiment: Inhibition of IKK-beta up to 50 uM
T2 sequence (O14920 whole entry): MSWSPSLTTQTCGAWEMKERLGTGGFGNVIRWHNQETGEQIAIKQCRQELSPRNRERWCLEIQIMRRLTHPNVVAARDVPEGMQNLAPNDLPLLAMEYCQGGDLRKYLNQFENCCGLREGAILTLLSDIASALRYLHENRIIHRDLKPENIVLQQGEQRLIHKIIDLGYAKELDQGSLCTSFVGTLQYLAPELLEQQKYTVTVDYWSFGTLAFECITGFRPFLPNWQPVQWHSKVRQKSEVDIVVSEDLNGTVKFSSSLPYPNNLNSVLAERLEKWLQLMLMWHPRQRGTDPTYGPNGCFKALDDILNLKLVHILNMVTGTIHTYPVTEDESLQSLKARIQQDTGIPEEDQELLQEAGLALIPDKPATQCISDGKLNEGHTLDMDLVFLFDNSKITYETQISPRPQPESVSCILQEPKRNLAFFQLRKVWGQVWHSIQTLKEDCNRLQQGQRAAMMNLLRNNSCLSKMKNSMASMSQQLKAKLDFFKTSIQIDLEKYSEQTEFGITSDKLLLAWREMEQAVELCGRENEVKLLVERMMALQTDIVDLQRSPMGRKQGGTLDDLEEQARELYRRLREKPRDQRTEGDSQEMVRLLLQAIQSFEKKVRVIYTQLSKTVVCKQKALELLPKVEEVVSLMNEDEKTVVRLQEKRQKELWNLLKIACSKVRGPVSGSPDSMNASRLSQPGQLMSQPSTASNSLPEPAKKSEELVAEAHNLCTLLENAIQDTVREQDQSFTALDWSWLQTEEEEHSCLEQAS

[11] = molecular target: T3, Cyclin-dependent kinase 2 (Homo sapiens, UniProt P24941)
[12] = molecular target: T3, Cyclin-dependent kinase 2; remark: listed apart in the source
[13] = molecular target: T4, Inhibitor of nuclear factor kappa-B kinase subunit alpha (Homo sapiens, UniProt O15111)
T4 sequence (O15111 whole entry): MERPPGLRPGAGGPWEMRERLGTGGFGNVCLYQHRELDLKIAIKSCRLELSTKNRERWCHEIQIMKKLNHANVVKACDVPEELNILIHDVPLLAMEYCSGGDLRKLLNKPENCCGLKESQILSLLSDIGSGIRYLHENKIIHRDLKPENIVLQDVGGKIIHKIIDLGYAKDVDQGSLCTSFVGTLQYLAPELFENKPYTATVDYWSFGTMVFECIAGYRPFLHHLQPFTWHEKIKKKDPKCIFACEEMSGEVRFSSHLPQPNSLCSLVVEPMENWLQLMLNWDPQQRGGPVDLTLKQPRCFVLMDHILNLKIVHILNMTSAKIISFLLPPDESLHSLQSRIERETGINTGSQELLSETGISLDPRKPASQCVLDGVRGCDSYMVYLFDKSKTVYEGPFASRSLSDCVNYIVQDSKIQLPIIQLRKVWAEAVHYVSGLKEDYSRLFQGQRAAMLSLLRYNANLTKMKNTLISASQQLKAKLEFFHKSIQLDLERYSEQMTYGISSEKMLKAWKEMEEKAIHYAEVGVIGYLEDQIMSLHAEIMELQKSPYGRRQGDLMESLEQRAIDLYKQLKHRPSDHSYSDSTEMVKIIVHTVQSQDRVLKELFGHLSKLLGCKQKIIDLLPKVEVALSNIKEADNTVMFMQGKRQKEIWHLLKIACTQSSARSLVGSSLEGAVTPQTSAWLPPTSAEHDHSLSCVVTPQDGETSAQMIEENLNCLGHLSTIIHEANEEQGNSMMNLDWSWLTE

Glycogen synthase kinase-3 beta, sequence (P49841 whole entry): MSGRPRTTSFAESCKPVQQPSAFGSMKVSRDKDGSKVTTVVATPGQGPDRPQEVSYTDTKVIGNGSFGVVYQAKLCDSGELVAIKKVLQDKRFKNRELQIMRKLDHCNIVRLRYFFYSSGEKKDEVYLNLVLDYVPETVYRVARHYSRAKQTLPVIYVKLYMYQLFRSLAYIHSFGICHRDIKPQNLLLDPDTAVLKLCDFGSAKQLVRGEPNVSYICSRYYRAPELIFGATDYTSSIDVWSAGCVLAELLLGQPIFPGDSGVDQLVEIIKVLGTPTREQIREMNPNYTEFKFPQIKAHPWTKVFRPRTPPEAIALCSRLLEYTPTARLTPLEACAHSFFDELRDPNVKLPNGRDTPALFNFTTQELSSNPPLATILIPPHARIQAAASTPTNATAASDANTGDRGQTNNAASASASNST

SMILES | IC50 [1] [nM] | IC50 [2] [µM] | IC50 [3] [µM] | IC50 [4] [µM] | also measured
Cn1cc(C2=C(c3coc4cc(OCC5CC5)ccc34)C(=O)NC2=O)c2cc(F)c(Cl)cc21 | 1290 |  |  |  | 
Cn1cc(C2=C(c3coc4cc(F)c(F)cc34)C(=O)NC2=O)c2ccc3ccccc3c21 |  | 17 | 7 | 6 | 
COc1ccc(CNC(=O)Nc2ncc([N+](=O)[O-])s2)cc1 |  | 29 | 14 | 22 | 
Cn1cc(C2=C(c3coc4cc(OCC5CCC5)ccc34)C(=O)NC2=O)c2cc(F)c(Cl)cc21 | 4090 |  |  |  | 
Cn1cc(C2=C(c3coc4ccccc34)C(=O)NC2=O)c2cc(I)ccc21 | 34.5 |  |  | > 50 | 
Cn1cc(C2=C(c3coc4ccccc34)C(=O)NC2=O)c2cc(F)c(Cl)cc21 |  | 3 | 2 | 2 | 
Cn1cc(C2=C(c3coc4ccc(F)cc34)C(=O)NC2=O)c2cc(C#CC3CC3)ccc21 |  | 34 | > 50 | > 50 | 
Cn1cc(C2=C(c3coc4cc(CO)ccc34)C(=O)NC2=O)c2cc(Br)ccc21 | 0.51 |  |  |  | 
Cn1cc(C2=C(c3ccc(Cl)cc3Cl)C(=O)NC2=O)c2ccccc21 [SB-216763] |  | 25 |  |  | 
COc1ccc2c(C3=C(c4cn(C)c5cc(Cl)c(F)cc45)C(=O)NC3=O)coc2c1 | 870 |  |  |  | 
COc1cccc2c(C3=C(c4cn(C)c5cc(C(F)(F)F)ccc45)C(=O)NC3=O)coc12 |  | 8 | 6 | 6 | 
COc1cc2c(C3=C(c4coc5ccccc45)C(=O)NC3=O)cn(C)c2cc1Cl |  | > 50 | > 50 | > 50 | 
COCc1cccc2c(C3=C(c4coc5ccccc45)C(=O)NC3=O)cn(C)c12 |  | > 50 | > 50 |  | 
Cn1cc(C2=C(c3coc4ccc(F)cc34)C(=O)NC2=O)c2cc(Cl)ccc21 | 42 |  |  |  | 
COc1cccc2c(C3=C(c4cn(C)c5cc(I)c(F)cc45)C(=O)NC3=O)coc12 |  |  |  |  | IC50 [5]: > 50 µM; IC50 [6]: > 50 µM; IC50 [7]: Not Active; IC50 [8]: Not Active; IC50 [9]: Not Active; IC50 [10]: Not Active; IC50 [11]: > 50000 nM; IC50 [12]: > 50 µM; IC50 [13]: > 50 µM
COc1cccc2c(C3=C(c4cn(C)c5ccc(Br)cc45)C(=O)NC3=O)coc12 | 7.5 |  |  |  | IC50 [11]: 1160 nM
Cn1cc(C2=C(c3coc4ccccc34)C(=O)NC2=O)c2cc(Br)ccc21 |  | 30 |  | 43 | 
